Test results taken from patent publication US20260347338A1, “PYRIMIDINE/PYRIDINE DERIVATIVES OR SALTS THEREOF AND PHARMACEUTICAL COMPOSITIONS COMPRISING THE SAME” (YUHAN CORPORATION, priority 2023, published 2026).
Structures can show the parent of a compound that is named as a salt.

target: T1, human recombinant HPK1 (Homo sapiens, UniProt Q92918); test: Inhibitory activity against human recombinant HPK1 (TR-FRET); type: biochemical; settings: ULight-p70S6K peptide, ATP at Km, room temperature, 1 hour, 0.32 to 1000 nM compound
T1 construct: purchased BPS Bioscience
T1 sequence (Q92918 whole entry): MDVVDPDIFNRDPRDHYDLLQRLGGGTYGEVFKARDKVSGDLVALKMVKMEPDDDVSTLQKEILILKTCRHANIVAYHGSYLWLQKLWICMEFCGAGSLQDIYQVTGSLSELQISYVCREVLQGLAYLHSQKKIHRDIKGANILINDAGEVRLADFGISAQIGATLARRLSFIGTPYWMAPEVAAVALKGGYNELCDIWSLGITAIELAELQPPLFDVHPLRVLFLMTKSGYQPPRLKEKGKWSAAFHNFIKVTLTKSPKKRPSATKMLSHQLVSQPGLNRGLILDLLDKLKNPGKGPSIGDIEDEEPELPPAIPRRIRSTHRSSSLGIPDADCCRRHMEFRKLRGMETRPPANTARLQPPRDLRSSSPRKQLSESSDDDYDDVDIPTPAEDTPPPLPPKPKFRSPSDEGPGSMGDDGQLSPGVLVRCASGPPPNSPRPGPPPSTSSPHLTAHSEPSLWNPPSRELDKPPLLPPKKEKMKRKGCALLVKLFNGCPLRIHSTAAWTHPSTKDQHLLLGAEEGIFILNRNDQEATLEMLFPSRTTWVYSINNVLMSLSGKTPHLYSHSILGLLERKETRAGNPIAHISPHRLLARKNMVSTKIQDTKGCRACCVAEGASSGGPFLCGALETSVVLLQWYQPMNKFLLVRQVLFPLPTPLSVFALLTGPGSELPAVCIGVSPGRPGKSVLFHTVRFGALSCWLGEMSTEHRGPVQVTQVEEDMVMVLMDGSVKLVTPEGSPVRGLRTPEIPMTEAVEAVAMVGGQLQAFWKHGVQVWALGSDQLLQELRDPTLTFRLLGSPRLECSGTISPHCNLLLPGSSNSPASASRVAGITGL
How it was run: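 IC50 classes A–D use 10, 50 and 100 nM cut-offs, derived from TR-FRET signal inhibition relative to DMSO controls. Human recombinant HPK1 phosphorylated ULight-p70S6K peptide at Km ATP for 1 h, room temperature, pH 7.4; test range 0.32–1000 nM final, detection with Eu-labelled antibody after EDTA quench.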

Compound	IC50 [nM]
COc1cccc(F)c1-c1nc(Nc2cc(N3CCC[C@H](N)C3)c(-c3cnn(CC(C)(C)O)c3)cn2)ccc1C#N [Example 319, 6-((4-((S)-3-aminopiperidin-1-yl)-5-(1-(2-hydroxy-2-methylpropyl)-1H-pyrazol-4-yl)pyridin-2-yl)amino)-2-(2-fluoro-6-methoxyphenyl)nicotinonitrile hydrochloride]	≤ 10
COc1cccc(F)c1-c1nccc(Nc2cc(N3CC[C@@H](N)[C@@H](F)C3)c(-c3cnn(C(F)F)c3)cn2)n1 [Example 308, N-(4-((3S,4R)-4-amino-3-fluoropiperidin-1-yl)-5-(1-(difluoromethyl)-1H-pyrazol-4-yl)pyridin-2-yl)-2-(2-fluoro-6-methoxyphenyl)pyrimidin-4-amine hydrochloride]	≤ 10
COc1cccc(F)c1-c1nccc(Nc2cc(N3C[C@@H](C)C[C@H](N)C3)c(-c3cnn(C(F)F)c3)cn2)n1 [Example 205, N-(4-((3S,5S)-3-amino-5-methylpiperidin-1-yl)-5-(1-(difluoromethyl)-1H-pyrazol-4-yl)pyridin-2-yl)-2-(2-fluoro-6-methoxyphenyl)pyrimidin-4-amine hydrochloride]	≤ 10
COc1cccc(F)c1-c1nc(Nc2cc(N3CC[C@@H](C)[C@H](N)C3)c(-c3cnn(C(F)F)c3)cn2)ccc1C#N [Example 337, 6-((4-((3S,4R)-3-amino-4-methylpiperidin-1-yl)-5-(1-(difluoromethyl)-1H-pyrazol-4-yl)pyridin-2-yl)amino)-2-(2-fluoro-6-methoxyphenyl)-nicotinonitrile hydrochloride]	≤ 10
COc1cccc(F)c1-c1nccc(Nc2cc(N3CCC[C@H](N)C3)c(-c3ccc(N4CCNCC4)nc3)cn2)n1 [Example 241, (S)-4-(3-aminopiperidin-1-yl)-N-(2-(2-fluoro-6-methoxyphenyl)pyrimidin-4-yl)-6′-(piperazin-1-yl)-[3,3′-bipyridin]-6-amine hydrochloride]	≤ 10
COc1cccc(F)c1-c1nccc(Nc2cc(N3CCC[C@@H](C(N)=O)C3)c(-c3cnn(C4CCOCC4)c3)cn2)n1 [Example 51, (R)-1-(2-((2-(2-fluoro-6-methoxyphenyl)pyrimidin-4-yl)amino)-5-(1-(tetrahydro-2H-pyran-4-yl)-1H-pyrazol-4-yl)pyridin-4-yl)piperidin-3-carboxamide]	50 to 100
COc1cc(F)cc(F)c1-c1nccc(Nc2cc(N3CCC[C@H](O)C3)c(-c3cnn(C(F)(F)F)c3)cn2)n1 [Example 171, (S)-1-(2-((2-(2,4-difluoro-6-methoxyphenyl)pyrimidin-4-yl)amino)-5-(1-(trifluoromethyl)-1H-pyrazol-4-yl)pyridin-4-yl)piperidin-3-ol]	≤ 10
COc1cccc(F)c1-c1nc(Nc2cc(N3CCC[C@H](O)C3)c(C#Cc3cnn(CC(F)F)c3)cn2)ccc1[N+](=O)[O-] [Example 221, (3S)-1-(5-((1-(2,2-difluoroethyl)-1H-pyrazol-4-yl)ethynyl)-2-((6-(2-fluoro-6-methoxyphenyl)-5-nitropyridin-2-yl)amino)pyridin-4-yl)piperidin-3-ol]	≤ 10
COc1cccc(F)c1-c1nccc(Nc2cc(N3CCC(CCN(C)C)CC3)c(-c3cnn(CC(F)(F)F)c3)cn2)n1 [Example 148, N-(4-(4-(2-(dimethylamino)ethyl)piperidin-1-yl)-5-(1-(2,2,2-trifluoroethyl)-1H-pyrazol-4-yl)pyridin-2-yl)-2-(2-fluoro-6-methoxyphenyl)pyrimidin-4-amine]	≤ 10
COc1cccc(F)c1-c1nccc(Nc2cc(N3CCC[C@H](N)C3)c(C#Cc3cnn(CC(F)(F)F)c3)cn2)n1 [Example 166, (S)-N-(4-(3-aminopiperidin-1-yl)-5-((1-(2,2,2-trifluoroethyl)-1H-pyrazol-4-yl)ethynyl)pyridin-2-yl)-2-(2-fluoro-6-methoxyphenyl)pyrimidin-4-amine hydrochloride]	≤ 10
COc1cccc(F)c1-c1nc(Nc2cc(N3CCC[C@H](O)C3)c(-c3cnn(C(F)F)c3)cn2)ccc1N [Example 150, (3S)-1-(2-((5-amino-6-(2-fluoro-6-methoxyphenyl)pyridin-2-yl)amino)-5-(1-(difluoromethyl)-1H-pyrazol-4-yl)pyridin-4-yl)piperidin-3-ol]	≤ 10
COc1cccc(F)c1-c1nccc(Nc2cc(N3CCC[C@H](N)C3)c(-c3ccc(F)c(N(C)C)c3)cn2)n1 [Example 296, (S)-N-(4-(3-aminopiperidin-1-yl)-5-(3-(dimethylamino)-4-fluorophenyl)pyridin-2-yl)-2-(2-fluoro-6-methoxyphenyl)pyrimidin-4-amine hydrochloride]	≤ 10
COc1cccc(F)c1-c1nccc(Nc2cc(N3CCC[C@H](N)C3)c(-c3ccc4c(c3)OCCN4C)cn2)n1 [Example 257, (S)-N-(4-(3-aminopiperidin-1-yl)-5-(4-methyl-3,4-dihydro-2H-benzo[b][1,4]oxazin-7-yl)pyridin-2-yl)-2-(2-fluoro-6-methoxyphenyl)pyrimidin-4-amine hydrochloride]	≤ 10
COc1cc(CN(C)C)cc(F)c1-c1nccc(Nc2cc(N3CCC[C@H](N)C3)c(C#CC3CCOCC3)cn2)n1 [Example 106, (S)-N-(4-(3-aminopiperidin-1-yl)-5-((tetrahydro-2H-pyran-4-yl)ethynyl)pyridin-2-yl)-2-(4-((dimethylamino)methyl)-2-fluoro-6-methoxyphenyl)pyrimidin-4-amine hydrochloride]	≤ 10
COc1cccc(F)c1-c1nc(Nc2cc(N3CCC[C@H](N)C3)c(-c3cnn(C4CCOCC4)c3)cn2)ccc1C(=O)N(C)C [Example 130, 6-((4-((S)-3-aminopiperidin-1-yl)-5-(1-(tetrahydro-2H-pyran-4-yl)-1H-pyrazol-4-yl)pyridin-2-yl)amino)-2-(2-fluoro-6-methoxyphenyl)-N,N-dimethylnicotinamide hydrochloride]	≤ 10
COc1cccc(F)c1-c1nccc(Nc2cc(N3CCC[C@H](O)C3)c(-c3cnn(C4CCOC4)c3)cn2)n1 (stereo partly drawn) [Example 14, (3S)-1-(2-((2-(2-fluoro-6-methoxyphenyl)pyrimidin-4-yl)amino)-5-(1-(tetrahydrofuran-3-yl)-1H-pyrazol-4-yl)pyridin-4-yl)piperidin-3-ol]	≤ 10
COc1cccc(F)c1-c1nc(Nc2cc(N3CCC[C@H](N)C3)c(-c3cnn(CC(F)(F)F)c3)cn2)ccc1[N+](=O)[O-] [Example 153, 4-((S)-3-aminopiperidin-1-yl)-N-(6-(2-fluoro-6-methoxyphenyl)-5-nitropyridin-2-yl)-5-(1-(2,2,2-trifluoroethyl)-1H-pyrazol-4-yl)pyridin-2-amine hydrochloride]	≤ 10

Results, then the compound that gave them:

IC50 [nM]	Compound
≤ 10	COc1cccc(F)c1-c1nc(Nc2cc(N3CCC[C@H](N)C3)c(-c3cnn(CC(F)(F)F)c3)cn2)ccc1F [Example 100, 4-((S)-3-aminopiperidin-1-yl)-N-(5-fluoro-6-(2-fluoro-6-methoxyphenyl)pyridin-2-yl)-5-(1-(2,2,2-trifluoroethyl)-1H-pyrazol-4-yl)pyridin-2-amine hydrochloride]
≤ 10	COc1cccc(F)c1-c1nccc(Nc2cc(N3CCC[C@H](N)C3)c(-c3cnn(CF)c3)cn2)n1 [Example 247, (S)-N-(4-(3-aminopiperidin-1-yl)-5-(1-(fluoromethyl)-1H-pyrazol-4-yl)pyridin-2-yl)-2-(2-fluoro-6-methoxyphenyl)pyrimidin-4-amine hydrochloride]
≤ 10	COc1cccc(F)c1-c1nccc(Nc2cc(N3CCC[C@H](N)C3)c(-c3ccc4c(c3)NC(=O)C(C)O4)cn2)n1 (stereo partly drawn) [Example 270, 6-(4-((S)-3-aminopiperidin-1-yl)-6-((2-(2-fluoro-6-methoxyphenyl)pyrimidin-4-yl)amino)pyridin-3-yl)-2-methyl-2H-benzo[b][1,4]oxazin-3(4H)-one hydrochloride]
≤ 10	COc1cccc(F)c1-c1nccc(Nc2cc(N3CCC[C@H](N)C3)c(-c3cnc4c(c3)OCC(=O)N4C)cn2)n1 [Example 274, (S)-7-(4-(3-aminopiperidin-1-yl)-6-((2-(2-fluoro-6-methoxyphenyl)pyrimidin-4-yl)amino)pyridin-3-yl)-4-methyl-2H-pyrido[3,2-b][1,4]oxazin-3(4H)-one hydrochloride]
≤ 10	O[C@H]1CCCN(c2cc(Nc3ccnc(-c4cc5nccnc5cc4F)n3)ncc2-c2cnn(C3CCOCC3)c2)C1 [Example 69, (S)-1-(2-((2-(7-fluoroquinoxalin-6-yl)pyrimidin-4-yl)amino)-5-(1-(tetrahydro-2H-pyran-4-yl)-1H-pyrazol-4-yl)pyridin-4-yl)piperidin-3-ol]
≤ 10	COc1cc(F)cc(F)c1-c1nc(Nc2cc(N3CCC[C@H](O)C3)c(C#CC3CCOCC3)cn2)ccc1[N+](=O)[O-] [Example 225, (3S)-1-(2-((6-(2,4-difluoro-6-methoxyphenyl)-5-nitropyridin-2-yl)amino)-5-((tetrahydro-2H-pyran-4-yl)ethynyl)pyridin-4-yl)piperidin-3-ol]
≤ 10	COc1cccc(F)c1-c1nccc(Nc2cc(N3CCC(C(C)(C)CO)CC3)c(-c3cnn(C4CCOCC4)c3)cn2)n1 [Example 67, 2-(1-(2-((2-(2-fluoro-6-methoxyphenyl)pyrimidin-4-yl)amino)-5-(1-(tetrahydro-2H-pyran-4-yl)-1H-pyrazol-4-yl)pyridin-4-yl)piperidin-4-yl)-2-methylpropan-1-ol]
≤ 10	COc1cc(F)cc(F)c1-c1nccc(Nc2cc(N3CCC[C@H](O)C3)c(-c3cnn(CC(F)F)c3)cn2)n1 [Example 172, (S)-1-(2-((2-(2,4-difluoro-6-methoxyphenyl)pyrimidin-4-yl)amino)-5-(1-(2,2-difluoroethyl)-1H-pyrazol-4-yl)pyridin-4-yl)piperidin-3-ol]
